Data published in patent US6020374A, “Biologically active synthetic dye compounds” (priority 1998, dated 2000).

Legend:
Type in all cases: cell-based
[1] = system: MAPK-1 (44 kDa) and MAPK-2 (42 kDa); assay: Activation of MAPKs in MCF-7 cells (anti-active MAPK immunoblot); conditions: 5 mins., ATA, EB each at 300 μg/ml, IGF-1 20 or 40 ng/ml
Method: FIG. 7 is the effect of ATA and EB on activation of MAPKs: MCF-7 cells were treated for 5 mins. with ATA, EB, each at 300 μg/ml, 20 ng/ml or 40 ng/ml IGF-1. Cell lysates, solubilized in Buffer C, were subjected to 12% SDS-PAGE and immunoblotted with an anti-active MAPK antibody. The membrane, after ECL detection, was stripped of bound antibody and blotted with an anti-MAPK antibody.
(§1) Nitrocellulose blots of proteins were incubated with the antibodies, and proteins were detected by enhanced chemiluminescence using horseradish peroxidase-labeled protein A, horseradish peroxidase-labeled anti rabbit IgG or horseradish peroxidase-labeled anti-mouse IgG.
The activated forms of MAPKs were detected by anti-active MAPK immunoblotting in the MCF-7 cell's lysates. […] Blotting with anti MAPKs antibodies confirms that similar amounts of MAPKs were present in treated and non-treated cells.

IRS-1 = IRS-1 tyrosine phosphorylation and association with p85/Grb2 in MCF-7 cells; conditions: 5 mins., ATA or EB 300 μg/ml, IGF-1 20 ng/ml
Method: FIG. 3 is the effect of ATA and EB on tyrosine phosphorylation or IRS-1: MCF-7 cells grown in 100 mm dishes, were treated with ATA or EB, each at 300 μg/ml, or 20 ng/ml IGF-1 for 5 mins. Total cell extracts, solubilized in Buffer A, were subjected to immunoprecipitation with antibodies to IRS-1 (a) or Grb2 (b). The immunocomplexes, precipitated with protein G-Sepharose beads, were subjected to 7.5% SDS-PAGE followed by immunoblotting with a phosphotyrosine antibody, an antibody to the 85-kDa subunit of PI3-kinase or antibody to IRS-1.
(§2) Cells were solubilized in Buffer A or C. Extracts were immunoprecipitated at 4° C. with antibodies to IRS-1, IRS-2, IGF-1 or IR receptor or Grb2, adsorbed on protein A-Sepharose beads. The immunocomplexes were pelleted by centrifugation at 12,000×g and washed twice with Buffer A, and twice with Buffer A containing 0.1% Triton x-100. The pellets were then suspended in Laemmli sample buffer and resolved on 7.5% SDS-PAGE.
as §1
MCF-7 cells were stimulated with ATA, EB or IGF-1, solubilized and immunoprecipitated with anti IRS-1 or IRS-2 antibodies, separated by SDS-PAGE and immunoblotted with anti-phosphotyrosine antibody. […] The association of IRS-1 with Grb-2 was evaluated in lysates from treated cells which were immunoblotted with antibodies to either phosphotyrosine or IRS-1.

3T3 L1 adipocytes = assay: Lipogenesis in 3T3 L1 adipocytes; conditions: 20 mins., EB, ATA 200 μg/ml, insulin 600 ng/ml
Method: FIG. 11 is the metabolic effects in 3T3 L1 adipocytes: Fully differentiated 3T3 L1 adipocytes were incubated with EB, ATA or fuchsin (FUCH) each at 200 μg/ml, or with 600 ng/ml of insulin for 20 mins. (A, B, C) or 5 mins. (D). CON indicates no additive.
C--Lipogenesis. Cells were incubated with 5 mM(U-^14 C) glucose (1 μCi/ml) for 60 mins. Radioactivity was determined in the cellular lipid fraction.

IGF-1 receptor β subunit = target: T1, IGF-1 receptor β subunit (Homo sapiens, UniProt P08069); assay: Tyrosine phosphorylation of IGF-1 receptor in MCF-7 cells; conditions: 5 mins., ATA, EB each at 300 μg/ml
T1 construct: endogenous in cells; host or cells: MCF-7
T1 sequence (P08069 741-1367 limits assumed): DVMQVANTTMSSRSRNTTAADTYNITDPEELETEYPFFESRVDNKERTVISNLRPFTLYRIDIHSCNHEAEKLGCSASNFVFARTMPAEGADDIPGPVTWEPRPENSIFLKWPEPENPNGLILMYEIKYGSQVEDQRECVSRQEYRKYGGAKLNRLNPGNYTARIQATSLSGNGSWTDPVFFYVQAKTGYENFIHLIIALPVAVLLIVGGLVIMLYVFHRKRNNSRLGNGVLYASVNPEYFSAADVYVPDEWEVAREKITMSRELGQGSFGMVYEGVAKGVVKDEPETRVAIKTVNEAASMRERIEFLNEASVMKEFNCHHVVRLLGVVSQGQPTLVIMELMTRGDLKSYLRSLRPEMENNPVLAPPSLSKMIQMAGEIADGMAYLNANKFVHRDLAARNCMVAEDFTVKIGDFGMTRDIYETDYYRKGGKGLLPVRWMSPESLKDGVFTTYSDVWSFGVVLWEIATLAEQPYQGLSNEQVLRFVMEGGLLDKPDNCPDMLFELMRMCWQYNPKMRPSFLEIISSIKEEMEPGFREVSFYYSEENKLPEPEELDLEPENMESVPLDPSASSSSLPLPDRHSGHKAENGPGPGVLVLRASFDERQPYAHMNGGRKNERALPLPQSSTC
T1 sequence (P08069 31-736 limits assumed): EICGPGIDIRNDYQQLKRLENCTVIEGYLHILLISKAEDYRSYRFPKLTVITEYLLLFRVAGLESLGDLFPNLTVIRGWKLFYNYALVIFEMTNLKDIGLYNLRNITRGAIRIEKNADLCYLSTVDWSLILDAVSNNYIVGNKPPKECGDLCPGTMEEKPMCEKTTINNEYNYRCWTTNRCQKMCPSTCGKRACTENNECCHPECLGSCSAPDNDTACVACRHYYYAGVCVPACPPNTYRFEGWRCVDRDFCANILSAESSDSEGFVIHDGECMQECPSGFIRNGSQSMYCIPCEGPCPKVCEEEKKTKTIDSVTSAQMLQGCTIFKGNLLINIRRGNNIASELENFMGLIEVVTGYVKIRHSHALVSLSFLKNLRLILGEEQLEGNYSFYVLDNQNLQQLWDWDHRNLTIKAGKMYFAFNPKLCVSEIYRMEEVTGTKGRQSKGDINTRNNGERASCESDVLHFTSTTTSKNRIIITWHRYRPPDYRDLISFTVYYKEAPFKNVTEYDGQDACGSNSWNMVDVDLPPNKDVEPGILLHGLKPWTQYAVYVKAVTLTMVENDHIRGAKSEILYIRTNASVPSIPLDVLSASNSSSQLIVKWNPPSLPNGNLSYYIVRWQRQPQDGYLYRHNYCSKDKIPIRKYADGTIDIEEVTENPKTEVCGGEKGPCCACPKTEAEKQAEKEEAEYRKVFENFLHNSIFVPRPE
Method: FIG. 6 is the effect of ATA and EB on tyrosine phosphorylation of IGF-1 receptor: MCF-7 cells, grown in 100 mm dishes, were treated with ATA, EB each at 300 μg/ml, or 20 ng/ml IGF-1 for 5 mins. Total cell extracts, solubilized in Buffer A, were immunoprecipitated with IGF1R antibody. The immunocomplexes precipitataed with protein G-Sepharose beads, were subjected to 7.5% SDS-PAGE followed by immunoblotting with a phosphotyrosine antibody. The membrane, after ECL detection, was stripped of bound antibody and reblotted with IGF1R antibody (IGF1R).
as §2
Nitrocellulose blots of proteins were incubated with the antibodies, and proteins were detected by enhanced chemiluminescence using horseradish peroxidase-labeled protein A, horseradish peroxidase-labeled anti rabbit IgG or horseradish peroxidase-labeled anti-mouse IgG. […]

IR = target: T2, IR (Rattus norvegicus, UniProt P15127); assay: Tyrosine phosphorylation of IR in FaO cells; conditions: EB; for Tyrosine phosphorylation of IR: 5 mins., ATA at 200 μg/ml
T2 construct: determined in the rat hepatoma cell line FaO; endogenous in cells; host or cells: FaO (rat hepatoma)
T2 sequence (P15127 764-1383 limits assumed): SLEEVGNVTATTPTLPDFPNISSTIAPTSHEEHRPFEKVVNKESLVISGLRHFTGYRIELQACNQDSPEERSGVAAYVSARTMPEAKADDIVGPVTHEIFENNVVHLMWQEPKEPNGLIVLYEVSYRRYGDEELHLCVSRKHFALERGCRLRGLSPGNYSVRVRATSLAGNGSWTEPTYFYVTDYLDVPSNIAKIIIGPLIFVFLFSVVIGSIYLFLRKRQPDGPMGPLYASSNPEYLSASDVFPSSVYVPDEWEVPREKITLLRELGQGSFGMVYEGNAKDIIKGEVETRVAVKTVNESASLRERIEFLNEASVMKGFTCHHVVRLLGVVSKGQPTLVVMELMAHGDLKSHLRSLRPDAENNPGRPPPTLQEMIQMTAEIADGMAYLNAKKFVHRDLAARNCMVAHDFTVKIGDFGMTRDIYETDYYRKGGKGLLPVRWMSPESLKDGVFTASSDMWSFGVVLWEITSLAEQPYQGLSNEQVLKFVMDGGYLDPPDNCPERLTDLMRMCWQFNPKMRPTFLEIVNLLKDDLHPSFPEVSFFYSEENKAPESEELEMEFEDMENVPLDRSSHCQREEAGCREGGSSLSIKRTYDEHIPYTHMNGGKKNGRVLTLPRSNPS
T2 sequence (P15127 27-759 limits assumed): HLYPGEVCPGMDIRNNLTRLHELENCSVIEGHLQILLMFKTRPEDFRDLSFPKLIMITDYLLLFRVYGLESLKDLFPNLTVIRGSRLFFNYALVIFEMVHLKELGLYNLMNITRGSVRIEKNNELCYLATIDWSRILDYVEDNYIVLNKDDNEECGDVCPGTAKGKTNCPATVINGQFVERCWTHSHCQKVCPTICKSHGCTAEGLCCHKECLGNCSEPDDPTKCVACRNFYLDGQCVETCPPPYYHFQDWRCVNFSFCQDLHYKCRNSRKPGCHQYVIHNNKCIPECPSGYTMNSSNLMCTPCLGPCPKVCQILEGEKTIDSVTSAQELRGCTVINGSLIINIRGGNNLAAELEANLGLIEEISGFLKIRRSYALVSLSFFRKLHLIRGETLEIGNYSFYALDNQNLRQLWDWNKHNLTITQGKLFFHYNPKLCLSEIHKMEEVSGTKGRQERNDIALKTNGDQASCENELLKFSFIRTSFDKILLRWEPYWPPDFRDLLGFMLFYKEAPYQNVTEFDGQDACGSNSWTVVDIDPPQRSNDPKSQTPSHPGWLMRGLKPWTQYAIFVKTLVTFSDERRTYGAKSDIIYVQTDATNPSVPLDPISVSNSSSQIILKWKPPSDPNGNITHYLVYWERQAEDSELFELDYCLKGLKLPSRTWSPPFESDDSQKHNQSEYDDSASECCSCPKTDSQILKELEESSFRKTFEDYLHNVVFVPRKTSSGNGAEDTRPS
Method: FIG. 9 is the tyrosine phosphorylation of the IR cascade in Fao cells: A--Immunoblot analysis: Fao cells were deprived of serum for 20 hours, then incubated with EB, ATA, at 200 μg/ml or insulin at 600 ng/ml for 5 mins. Cell extracts were subjected to immunoprecipitation with antibodies to: IR β-subunit (αIR), IRS-1 (αIRS-1) and to IRS-2 (αIRS-2). The immunoprecipitates and total cell extracts were analyzed by SDS-PAGE. Proteins were transferred to nitrocellulose papers, and phosphotyrosine containing proteins were probed with anti-phosphotyrosine antibodies (αP-Tyr), antibody to the 85-kDa subunit of PI3-kinase (αp85) and antibodies to active MAPK (α active MAPK). The immunoblots were visualized by ECL (Amersham).
B--Kinetics of IR phosphorylation: Cells were treated either with 200 μg/ml EB for the indicated times (top panel) or with the indicated concentrations of EB for 5 mins. (middle panel). A 3 hour preincubation with vanadate preceded the 5 min. incubations with EB and insulin (bottom panel).
MCF-7 cells were grown in 35 or 100 mm dishes in DMEM with 5% bovine fetal serum. Rat hepato FaO cells were grown in RPMI 1640 medium supplemented with 10% fetal calf serum. Subconfluent monolayers of MCF-7 cells or FaO cells, were deprived of serum for 20 hours prior to each experiment. The medium was removed, and cells were incubated at 37° C. under the conditions as indicated for each experiment. The reaction was terminated by removing the medium and freezing the monolayers with liquid nitrogen. In some experiments, cells were preincubated with 50 μM sodium orthovanadate for 3 hours.
as §2, §1
The ability of EB and ATA to phosphorylate the IR was determined in the rat hepatoma cell line FaO. […] Phosphorylation is maximal after a 1 min. exposure to 70 μg/ml of EB (FIG. 9B, top and middle panels).

SMILES | Phosphorylated (active) isoforms MAPK-1 and MAPK-2 [1] | Association of IRS-1 with Grb-2 (IRS-1) | Association of p85 subunit of PI3-k with IRS-1 (IRS-1) | Phosphorylation of IRS-1 (IRS-1) | Lipogenesis (3T3 L1 adipocytes) | Tyrosine phosphorylation of IGF-1 receptor β subunit (IGF-1 receptor β subunit) | Tyrosine phosphorylation of IR (IR) | Concentration of maximal IR phosphorylation (IR) [µg/mL] | Exposure time of maximal IR phosphorylation (IR) [min]
O=C(O)C1=CC(=C(c2ccc(O)c(C(=O)O)c2)c2ccc(O)c(C(=O)O)c2)C=CC1=O [ATA, Aurintricarboxylic acid] | clearly detected | IRS-1 co-precipitated with Grb2 | p85 precipitates with IRS-1 | stimulated the phosphorylation of IRS-1 | increase | phosphorylated the IGF-1 receptor β subunit | phosphorylates IR on tyrosine residues, similar to insulin |  | 
Cc1cc(-c2ccc(N=Nc3ccc4c(S(=O)(=O)O)cc(S(=O)(=O)O)c(N)c4c3O)c(C)c2)ccc1N=Nc1ccc2c(S(=O)(=O)O)cc(S(=O)(=O)O)c(N)c2c1O [EB, Evan's Blue] | clearly detected | IRS-1 co-precipitated with Grb2 | p85 precipitates with IRS-1 | stimulated the phosphorylation of IRS-1 | increase | phosphorylated the IGF-1 receptor β subunit | phosphorylates IR on tyrosine residues, similar to insulin | 70 | 1
